Assays:
[1] = target: T1, EP300-BRD (Homo sapiens, UniProt Q09472); test: BROMOscan ligand binding site-directed competition assay, EP300
T1 construct: T7 phage display fusion with DNA tag for qPCR; purchased Eurofins Discovery (BROMOscan service); host or cells: E. coli infected with T7 phage
T1 sequence (Q09472 1049-1156 limits assumed): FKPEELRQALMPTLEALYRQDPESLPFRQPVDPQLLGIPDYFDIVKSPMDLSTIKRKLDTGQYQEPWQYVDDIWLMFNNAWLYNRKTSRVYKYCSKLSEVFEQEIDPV
Method: (§1) 2. Methods and General Procedures […]
(§2) KD values were determined using BROMOscan™ technology, carried out by Eurofins […]
(§3) Discovery according to their standard protocol. Briefly E. coli were infected with T7 phage […]
(§4) strains displaying bromodomains and bromodomain protein was subsequently purified […]
(§5) through lysis, centrifugation and filtration. Affinity resins were generated by incubation of […]
(§6) streptavidin-coated magnetic beads with biotinylated small molecules or acetylated […]
(§7) peptide ligands. Binding reactions were assembled by combining the bromodomains and […]
(§8) liganded affinity beads in binding buffer (17 % SeaBlock, 0.33x PBS, 0.04 % Tween 20, […]
(§9) 0.02 % BSA, 0.004 % sodium azide and 7.4 mM DTT) with compounds (11-point, 3-fold […]
(§10) dilution series) added to give a final DMSO concentration of 0.09 %. Assay plates were […]
(§11) incubated for 1 h, prior to washing and elution of beads. The bromodomain concentration […]
(§12) in the eluates was measured by qPCR of the DNA tag on the bromodomain.
(§13) KD values were calculated with a standard dose-response curve fitted using the Hill […]
(§14) Response = Background + Signal − Background […]
(§15) The Hill Slope was set to -1 and curves fitted using a non-linear least square fit with the Levenberg-Marquardt algorithm.
(§16) Ligand efficiency (LE) was calculated as follows: LE = 1.4(pIC50)/N

[2] = tested on: crebbp and ep300 expression; test: Gene expression analysis by RT-qPCR in LP1 cells; format: cell-based; details: 16 h, 1 μM, normalized to hprt
Method: cooperativity factor (α) was defined as the ratio of the IC50 values in the absence and […]
For the ternary complex experiments, the final assay composition was: 0.1 % DMSO, 5 nM GST-CBP, 5 nM CRBN-Avi(biotin), 100 mM KF, 0.625 nM XL665-Streptavidin conjugate and 0.8 nM anti-GST mAb – Eu3+-cryptate. The maximal control contained 40 nM dCBP-1, the blank contained no PROTAC. Hook curves were generated by normalization to the maximal control.
LP1 cells were cultured in DMEM (Gibco, 41966-029) supplemented with 15 % FBS (Sigma, F9665); MM1S and LNCaP cells in RPMI 1640 ATCC modification (Gibco, […]
DMEM/F12 (Gibco, 11320074) supplemented with 1 % non-essential amino acids […]
Quantification of CBP/EP300 degradation by Western blotting
LP1 cells plated on 6 well plates were treated with the stated compounds at a final concentration of 0.1 % DMSO for the stated time. […] Protein concentrations were determined using the Pierce ™ BCA Protein Assay Kit (Thermo Scientific, 23227) and equal amounts were separated on 4-12 % ExpressPl us™ PAGE gels (GenScript, M41215). […]
SuperSignal™ West Pico PLUS Chemiluminescent Substrate (Thermo Scientific, 34580) and the Vilber Fusion-FX7 imager. Bands were quantified using ImageJ software and protein levels normalized to protein from DMSO treated cells run on the same membrane. […]

[3] = target: CBP-BRD (Homo sapiens, UniProt Q92793); test: BROMOscan ligand binding site-directed competition assay, CBP; design: T7 phage display fusion with DNA tag for qPCR; purchased Eurofins Discovery (BROMOscan service); host or cells: E. coli infected with T7 phage
Sequence of CBP-BRD (Q92793 1085-1192 limits assumed): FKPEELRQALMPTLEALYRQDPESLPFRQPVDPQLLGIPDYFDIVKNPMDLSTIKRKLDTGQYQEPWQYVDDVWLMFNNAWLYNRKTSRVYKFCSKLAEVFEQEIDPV
Method: as §1, §2, §3, §4, §5, §6, §7, §8, §9, §10, §11, §12, §13, §14, §15, §16

Cc1cc2c(NC(=O)c3cc(NC(=O)CCCCCCCCCCNc4cccc5c4C(=O)N(C4CCC(=O)NC4=O)C5=O)cc(-c4ccn(C)n4)c3)cccc2nn1 (centres unmarked) [dCE-2]
Kd ([1]; BROMOscan): > 10000 nM
loss of potency compared to parent compound 3, EP300 ([1]; BROMOscan KD ratio): > 400 fold
crebbp and ep300 expression [2]: mild upregulation
Kd ([3]; BROMOscan): 1300 nM
loss of potency compared to parent compound 3, CBP ([3]; BROMOscan KD ratio): > 40 fold
